Literature values in patent publication EP2374448A1, “Oral film formulation” (Labtec GmbH, priority 2010, dated 2011).
Read-outs that look alike come from different tables or passages of the source.

[1] = oral administration, overall range

| Molecule | Tmax after oral administration [1] | also measured |
| --- | --- | --- |
| CN(C)CCc1c[nH]c2ccc(Cn3cncn3)cc12 [Rizatriptan, N,N-dimethyl-5-(IH-1,2,4-triazol-l-ylmethyl)-1H-indole-3-ethanamine] | 0.5 - 3 (preferably 1.0 - 2.5) h | – |
| CN(C)CCc1c[nH]c2ccc(C[C@H]3COC(=O)N3)cc12 [zolmitriptan, (S)-(4)-[[3-[2-(dimethylamino)ethyl]-1H-indole-5yl]methyl]-2-oxazolidinone] | 1 to 4 h | Tmax after oral administration (oral administration, during attack): 2.5 to 3 h; Tmax after oral administration (oral administration, migraine free period): 1 to 2 h |
| CN1CCC[C@@H]1Cc1c[nH]c2ccc(CCS(=O)(=O)c3ccccc3)cc12 [Eletriptan, (R)-3-[(I-Methyl-2-pyrrolidinyl)methyl]-5-[2-(phenylsulfonyl)ethyl]-1H-indole] | 1.0 - 3 (preferably 1.5 - 2.0) h | – |
| CN[C@@H]1CCc2[nH]c3ccc(C(N)=O)cc3c2C1 [Frovatriptan, (+)-(R)-3-methylamino-6-carboxamido-1,2,3,4-tetrahydrocarbazole] | 0.5 - 4 (preferably 1.0 - 3.0) h | – |
| N-methyl-3-(1-methyl-4-piperidinyl)-1H-indole-5-ethanesulfonamide [Naratriptan] | – | Tmax after oral administration (in vivo, po): 1.5 - 4.5 (preferably 2.0 - 4.0) h |
| 4-(5-Methoxy-4-pyrimidinyl)-1-[3-[5-[[(methylamino)-sulfonyl]methyl]-1H-indole-3-yl]propyl]piperazine [Avitriptan] | – | Tmax after oral administration (in vivo, po): 0.25 - 1 (preferably 0.5) h |
| CNS(=O)(=O)Cc1ccc2[nH]cc(CCN(C)C)c2c1 [Sumatriptan, 3-[2-(dimethylamino)ethyl]-N-methyl-1H-indole-5-methanesulfonamide] | 1.5 - 3 (preferably 2 - 2.5) h | – |
| CN(C)CCc1c[nH]c2ccc(CS(=O)(=O)N3CCCC3)cc12 [Almotriptan, I-[[[3-[2-(dimethylamino)ethyl]-1H-indole-5-yl]methyl]sulfonyl]pyrrolidine] | 0.5 - 4 (preferably 1.0 - 3.0) h | – |
